What follows are compounds tested on Phytophthora infestans (assay: microbe, parasite or virus in culture). Details: in Secale cereale, 168 h, read-out: control compared to the untreated check.
Format: cell-based

SMILES | inhibition of growth at 30 ppm [%]
O=C(COc1cc(C(F)(F)F)ncn1)N1CCC(c2nc(C3=NOC(c4c(Cl)cccc4C(F)(F)F)C3)cs2)CC1 (stereo not shown) [Compound 10, 1-(4-(4-(5-(2-chloro-6-(trifluoromethyl)phenyl)-4,5-dihydroisoxazol-3-yl)thiazol-2-yl)piperidin-1-yl)-2-((6-(trifluoromethyl)pyrimidin-4-yl)oxy)ethan-1-one] | ≥ 70
O=C(COc1cc(C(F)(F)F)ncn1)N1CCC(c2nc(C3=NOC(c4c(Cl)cc(Cl)cc4Cl)C3)cs2)CC1 (stereo not shown) [Compound 11, 1-(4-(4-(5-(2,4,6-trichlorophenyl)-4,5-dihydroisoxazol-3-yl)thiazol-2-yl)piperidin-1-yl)-2-((6-(trifluoromethyl)pyrimidin-4-yl)oxy)ethan-1-one] | ≥ 70
O=C(COc1cc(C(F)(F)F)ncn1)N1CCC(c2nc(C3=NOC(c4c(F)cccc4F)C3)cs2)CC1 (stereo not shown) [Compound 12, 1-(4-(4-(5-(2,6-difluorophenyl)-4,5-dihydroisoxazol-3-yl)thiazol-2-yl)piperidin-1-yl)-2-((6-(trifluoromethyl)pyrimidin-4-yl)oxy)ethan-1-one] | ≥ 70
O=C(COc1ccnc(C(F)(F)F)n1)N1CCC(c2nc(C3=NOC(c4c(Cl)cc(Cl)cc4Cl)C3)cs2)CC1 (stereo not shown) [Compound 19, 1-(4-(4-(5-(2,4,6-trichlorophenyl)-4,5-dihydroisoxazol-3-yl)thiazol-2-yl)piperidin-1-yl)-2-((2-(trifluoromethyl)pyrimidin-4-yl)oxy)ethan-1-one] | ≥ 70
O=C(COc1ccnc(C(F)(F)F)n1)N1CCC(c2nc(C3=NOC(c4c(F)cccc4Cl)C3)cs2)CC1 (stereo not shown) [Compound 20, 1-(4-(4-(5-(2-chloro-6-fluorophenyl)-4,5-dihydroisoxazol-3-yl)thiazol-2-yl)piperidin-1-yl)-2-((2-(trifluoromethyl)pyrimidin-4-yl)oxy)ethan-1-one] | ≥ 70
CS(=O)(=O)Oc1cccc(Cl)c1C1CC(c2csc(C3CCN(C(=O)COc4ccnc(C(F)(F)F)n4)CC3)n2)=NO1 (stereo not shown) [Compound 21, 3-chloro-2-(3-(2-(1-(2-((2-(trifluoromethyl)pyrimidin-4-yl)oxy)acetyl)piperidin-4-yl)thiazol-4-yl)-4,5-dihydroisoxazol-5-yl)phenyl methanesulfonate] | ≥ 70
COc1nccnc1OCC(=O)N1CCC(c2nc(C3=NOC(c4c(Cl)cc(Cl)cc4Cl)C3)cs2)CC1 (stereo not shown) [Compound 24, 2-((3-methoxypyrazin-2-yl)oxy)-1-(4-(4-(5-(2,4,6-trichlorophenyl)-4,5-dihydroisoxazol-3-yl)thiazol-2-yl)piperidin-1-yl)ethan-1-one] | ≥ 70
COc1nccnc1OCC(=O)N1CCC(c2nc(C3=NOC(c4c(Cl)cccc4Cl)C3)cs2)CC1 (stereo not shown) [Compound 30, 1-(4-(4-(5-(2,6-dichlorophenyl)-4,5-dihydroisoxazol-3-yl)thiazol-2-yl)piperidin-1-yl)-2-((3-methoxypyrazin-2-yl)oxy)ethan-1-one] | ≥ 70
COc1ccnc(OCC(=O)N2CCC(c3nc(C4=NOC(c5c(F)cccc5Br)C4)cs3)CC2)n1 (stereo not shown) [Compound 44, 1-(4-(4-(5-(2-bromo-6-fluorophenyl)-4,5-dihydroisoxazol-3-yl)thiazol-2-yl)piperidin-1-yl)-2-((4-methoxypyrimidin-2-yl)oxy)ethan-1-one] | ≥ 70
N#Cc1cccc(Cl)c1C1CC(c2csc(C3CCN(C(=O)COc4nccc(C(F)(F)F)n4)CC3)n2)=NO1 (stereo not shown) [Compound 45, 3-chloro-2-(3-(2-(1-(2-((4-(trifluoromethyl)pyrimidin-2-yl)oxy)acetyl)piperidin-4-yl)thiazol-4-yl)-4,5-dihydroisoxazol-5-yl)benzonitrile] | ≥ 70
CS(=O)(=O)Oc1cccc(Cl)c1C1CC(c2csc(C3CCN(C(=O)COc4nccc(C(F)(F)F)n4)CC3)n2)=NO1 (stereo not shown) [Compound 46, 3-chloro-2-(3-(2-(1-(2-((4-(trifluoromethyl)pyrimidin-2-yl)oxy)acetyl)piperidin-4-yl)thiazol-4-yl)-4,5-dihydroisoxazol-5-yl)phenyl methanesulfonate] | ≥ 70
O=C(COc1nccc(C(F)(F)F)n1)N1CCC(c2nc(C3=NOC(c4c(Cl)cccc4Cl)C3)cs2)CC1 (stereo not shown) [Compound 47, 1-(4-(4-(5-(2,6-dichlorophenyl)-4,5-dihydroisoxazol-3-yl)thiazol-2-yl)piperidin-1-yl)-2-((4-(trifluoromethyl)pyrimidin-2-yl)oxy)ethan-1-one] | ≥ 70
O=C(COc1nccc(C(F)(F)F)n1)N1CCC(c2nc(C3=NOC(c4c(F)cccc4Cl)C3)cs2)CC1 (stereo not shown) [Compound 48, 1-(4-(4-(5-(2-chloro-6-fluorophenyl)-4,5-dihydroisoxazol-3-yl)thiazol-2-yl)piperidin-1-yl)-2-((4-(trifluoromethyl)pyrimidin-2-yl)oxy)ethan-1-one] | ≥ 70
O=C(COc1nccc(C(F)(F)F)n1)N1CCC(c2nc(C3=NOC(c4c(Cl)cc(Cl)cc4Cl)C3)cs2)CC1 (stereo not shown) [Compound 49, 1-(4-(4-(5-(2,4,6-trichlorophenyl)-4,5-dihydroisoxazol-3-yl)thiazol-2-yl)piperidin-1-yl)-2-((4-(trifluoromethyl)pyrimidin-2-yl)oxy)ethan-1-one] | ≥ 70
O=C(COc1nccc(C(F)(F)F)n1)N1CCC(c2nc(C3=NOC(c4c(F)cccc4F)C3)cs2)CC1 (stereo not shown) [Compound 50, 1-(4-(4-(5-(2,6-difluorophenyl)-4,5-dihydroisoxazol-3-yl)thiazol-2-yl)piperidin-1-yl)-2-((4-(trifluoromethyl)pyrimidin-2-yl)oxy)ethan-1-one] | ≥ 70
O=C(COc1nccc(C(F)(F)F)n1)N1CCC(c2nc(C3=NOC(c4c(F)cccc4Br)C3)cs2)CC1 (stereo not shown) [Compound 52, 1-(4-(4-(5-(2-bromo-6-fluorophenyl)-4,5-dihydroisoxazol-3-yl)thiazol-2-yl)piperidin-1-yl)-2-((4-(trifluoromethyl)pyrimidin-2-yl)oxy)ethan-1-one] | ≥ 70
O=C(COc1cncc(C(F)(F)F)n1)N1CCC(c2nc(C3=NOC(c4c(F)cccc4Cl)C3)cs2)CC1 (stereo not shown) [Compound 53, 1-(4-(4-(5-(2-chloro-6-fluorophenyl)-4,5-dihydroisoxazol-3-yl)thiazol-2-yl)piperidin-1-yl)-2-((6-(trifluoromethyl)pyrazin-2-yl)oxy)ethan-1-one] | ≥ 70
O=C(COc1cncc(C(F)(F)F)n1)N1CCC(c2nc(C3=NOC(c4c(Cl)cccc4Cl)C3)cs2)CC1 (stereo not shown) [Compound 55, 1-(4-(4-(5-(2,6-dichlorophenyl)-4,5-dihydroisoxazol-3-yl)thiazol-2-yl)piperidin-1-yl)-2-((6-(trifluoromethyl)pyrazin-2-yl)oxy)ethan-1-one] | ≥ 70
N#Cc1cccc(Cl)c1C1CC(c2csc(C3CCN(C(=O)COc4cncc(C(F)(F)F)n4)CC3)n2)=NO1 (stereo not shown) [Compound 56, 3-chloro-2-(3-(2-(1-(2-((6-(trifluoromethyl)pyrazin-2-yl)oxy)acetyl)piperidin-4-yl)thiazol-4-yl)-4,5-dihydroisoxazol-5-yl)benzonitrile] | ≥ 70
